In brackets after ≈: the same amount, converted by molar mass. Activity calls are given as the source filed them. The rule behind the calls is not given here.
Assays:
[1] = system: Japanese encephalitis virus; assay: Antiviral activity against Japanese encephalitis virus Beijing infected in low viral dose challenge C57BL/6 mouse model assessed as survival rate at 4 mg/kg/day, sc once daily for 7 days administered 1 day before infection measured after 28 days post infection relative to control; format: functional; details: route subcutaneous
[2] = system: Japanese encephalitis virus; assay: Antiviral activity against Japanese encephalitis virus Beijing infected in low viral dose challenge C57BL/6 mouse model assessed as survival rate at 6 mg/kg/day, sc once daily for 7 days administered 1 day before infection measured after 28 days post infection relative to control; format: functional; details: route subcutaneous
[3] = system: Japanese encephalitis virus; assay: Antiviral activity against Japanese encephalitis virus Beijing infected in high viral dose challenge C57BL/6 mouse model assessed as survival rate at 6 mg/kg/day, ip twice daily for 9 days administered 1 day before infection measured after 28 days post infection relative to control; format: functional; details: route intraperitoneal
[4] = system: Japanese encephalitis virus; assay: Antiviral activity against Japanese encephalitis virus Beijing infected in low viral dose challenge C57BL/6 mouse model assessed as average day of death at 4 mg/kg/day, sc once daily for 7 days administered 1 day before infection measured after 28 days post infection; format: functional; details: route subcutaneous
[5] = system: Japanese encephalitis virus; assay: Antiviral activity against Japanese encephalitis virus Beijing infected in low viral dose challenge C57BL/6 mouse model assessed as average day of death at 2 mg/kg/day, sc once daily for 7 days administered 1 day before infection measured after 28 days post infection; format: functional; details: route subcutaneous
[6] = system: Japanese encephalitis virus; assay: Antiviral activity against Japanese encephalitis virus Beijing infected in low viral dose challenge C57BL/6 mouse model assessed as inhibition of virus-induced mortality at 4 mg/kg/day, sc once daily for 7 days administered 1 day before infection measured after 28 days post infection; format: functional, organism-based
[7] = system: Mus musculus; assay: Toxicity in C57BL/6 mouse assessed as change in body weight at 8 mg/kg/day, ip twice daily for 9 days administered 1 day before infection measured after 28 days post infection; format: organism-based; set-up: route intraperitoneal; details: in vivo, 672 h
[8] = system: Mus musculus; assay: Toxicity in C57BL/6 mouse assessed as change in body weight at 6 mg/kg/day, ip twice daily for 9 days administered 1 day before infection measured after 28 days post infection; format: organism-based; set-up: route intraperitoneal; details: in vivo, 672 h
[9] = system: Mus musculus; assay: Toxicity in C57BL/6 mouse assessed as change in body weight at 5 mg/kg/day, ip twice daily for 9 days administered 1 day before infection measured after 28 days post infection; format: organism-based; set-up: route intraperitoneal; details: in vivo, 672 h
[10] = system: Mus musculus; assay: Toxicity in C57BL/6 mouse assessed as change in body weight at 4 mg/kg/day, ip twice daily for 9 days administered 1 day before infection measured after 28 days post infection; format: organism-based; set-up: route intraperitoneal; details: in vivo, 672 h
[11] = system: Mus musculus; assay: Toxicity in C57BL/6 mouse assessed as change in body weight at 3 mg/kg/day, ip twice daily for 9 days administered 1 day before infection measured after 28 days post infection; format: organism-based; set-up: route intraperitoneal; details: in vivo, 672 h
[12] = system: Mus musculus; assay: Toxicity in C57BL/6 mouse assessed as change in body weight at 2 mg/kg/day, ip twice daily for 9 days administered 1 day before infection measured after 28 days post infection; format: organism-based; set-up: route intraperitoneal; details: in vivo, 672 h
[13] = system: Mus musculus; assay: Toxicity in C57BL/6 mouse assessed as mortality at 4 mg/kg/day, ip twice daily for 9 days; format: organism-based; set-up: route intraperitoneal; details: in vivo, 216 h
[14] = system: Mus musculus; assay: Toxicity in C57BL/6 mouse assessed as mortality at 3 mg/kg/day, ip twice daily for 9 days; format: organism-based; set-up: route intraperitoneal; details: in vivo, 216 h
[15] = system: Mus musculus; assay: Toxicity in C57BL/6 mouse assessed as mortality at 2 mg/kg/day, ip twice daily for 9 days; format: organism-based; set-up: route intraperitoneal; details: in vivo, 216 h
[16] = system: Japanese encephalitis virus; assay: Antiviral activity against Japanese encephalitis virus Beijing infected in high viral dose challenge C57BL/6 mouse model assessed as average day of death at 8 mg/kg/day, ip twice daily for 9 days administered 1 day before infection measured after 28 days post infection; format: functional; details: route intraperitoneal
[17] = system: Japanese encephalitis virus; assay: Antiviral activity against Japanese encephalitis virus Beijing infected in high viral dose challenge C57BL/6 mouse model assessed as average day of death at 6 mg/kg/day, ip twice daily for 9 days administered 1 day before infection measured after 28 days post infection; format: functional; details: route intraperitoneal
[18] = system: Japanese encephalitis virus; assay: Antiviral activity against Japanese encephalitis virus Beijing infected in high viral dose challenge C57BL/6 mouse model assessed as average day of death at 5 mg/kg/day, ip twice daily for 9 days administered 1 day before infection measured after 28 days post infection; format: functional; details: route intraperitoneal
[19] = system: Japanese encephalitis virus; assay: Antiviral activity against Japanese encephalitis virus Beijing infected in high viral dose challenge C57BL/6 mouse model assessed as average day of death at 4 mg/kg/day, ip twice daily for 9 days administered 1 day before infection measured after 28 days post infection; format: functional; details: route intraperitoneal
[20] = system: Japanese encephalitis virus; assay: Antiviral activity against Japanese encephalitis virus Beijing infected in high viral dose challenge C57BL/6 mouse model assessed as average day of death at 3 mg/kg/day, ip twice daily for 9 days administered 1 day before infection measured after 28 days post infection; format: functional; details: route intraperitoneal
[21] = system: Japanese encephalitis virus; assay: Antiviral activity against Japanese encephalitis virus Beijing infected in high viral dose challenge C57BL/6 mouse model assessed as average day of death at 2 mg/kg/day, ip twice daily for 9 days administered 1 day before infection measured after 28 days post infection; format: functional; details: route intraperitoneal
[22] = system: Japanese encephalitis virus; assay: Antiviral activity against Japanese encephalitis virus Beijing infected in high viral dose challenge C57BL/6 mouse model assessed inhibition of virus-induced mortality at 4 mg/kg/day, ip twice daily for 9 days administered 1 day before infection measured after 28 days post infection; format: functional, organism-based
[23] = system: Mus musculus; assay: Toxicity in C57BL/6 mouse assessed as mortality at 2 mg/kg/day, sc once daily for 7 days; format: organism-based; set-up: route subcutaneous; details: in vivo, 168 h
[24] = system: Mus musculus; assay: Toxicity in C57BL/6 mouse assessed as mortality at 6 mg/kg/day, sc once daily for 7 days; format: organism-based; set-up: route subcutaneous; details: in vivo, 168 h
[25] = system: Japanese encephalitis virus; assay: Antiviral activity against Japanese encephalitis virus Nakayama infected in african green monkey Vero cells assessed as inhibition of virus-induced cytopathic effect by MTT assay; format: functional, organism-based; details: Japanese encephalitis virus, Nakayama, Vero; read-out: IC50
[26] = Therapeutic index, ratio of TC50 for african green monkey Vero cells to IC50 for Japanese encephalitis virus Nakayama; format: cell-based; details: read-out: TI
[27] = system: Yellow fever virus; assay: Antiviral activity against Yellow fever virus Ashibi infected in african green monkey Vero cells assessed as inhibition of virus-induced cytopathic effect by MTT assay; format: functional, organism-based; details: Yellow fever virus, Ashibi, Vero; read-out: IC50
[28] = Therapeutic index, ratio of TC50 for african green monkey Vero cells to IC50 for Yellow fever virus Ashibi; format: cell-based; details: read-out: TI
[29] = system: dengue virus type 4; assay: Antiviral activity against Dengue virus type 4 infected in african green monkey Vero cells after 6 days by plaque reduction assay; format: functional, organism-based; details: Dengue virus, Vero, 144 h; read-out: IC50
[30] = Therapeutic index, ratio of TC50 for african green monkey Vero cells to IC50 for Dengue type 4 virus; format: cell-based; details: read-out: TI
[31] = system: Punta Toro virus; assay: Antiviral activity against Punta Toro virus Adames infected in african green monkey Vero cells assessed as inhibition of virus-induced cytopathic effect by MTT assay; format: functional, organism-based
[32] = system: Rift Valley fever virus; assay: Antiviral activity against Rift Valley fever virus infected in african green monkey Vero cells after 6 days by plaque reduction assay; format: functional, organism-based; details: Rift Valley fever virus, Vero, 144 h; read-out: IC50
[33] = Therapeutic index, ratio of TC50 for african green monkey Vero cells to IC50 for Rift valley fever virus; format: cell-based; details: read-out: TI
[34] = system: Sandfly fever Sicilian virus; assay: Antiviral activity against Sandfly fever sicilian virus infected in african green monkey Vero cells assessed as inhibition of virus-induced cytopathic effect by MTT assay; format: functional, organism-based; details: vero
[35] = system: Mus musculus; assay: Toxicity in C57BL/6 mouse assessed as average day of death at 6 mg/kg/day, sc once daily for 7 days; format: organism-based; set-up: route subcutaneous; details: in vivo, 168 h
[36] = system: Mus musculus; assay: Toxicity in C57BL/6 mouse assessed as mortality at 4 mg/kg/day, sc once daily for 7 days; format: organism-based; set-up: route subcutaneous; details: in vivo, 168 h
[37] = system: Japanese encephalitis virus; assay: Antiviral activity against Japanese encephalitis virus Beijing infected in low viral dose challenge C57BL/6 mouse model assessed as average day of death at 6 mg/kg/day, sc once daily for 7 days administered 1 day before infection measured after 28 days post infection; format: functional; details: route subcutaneous

## O=C1N[C@H]2[C@H](O)[C@H](O)[C@@H](O)[C@H](O)[C@@H]2c2cc3c(c(O)c21)OCO3 [PANCRATISTATIN]
[1]
  Activity: 30%
[2]
  Activity: 90%
[3]
  Activity: 50%
[4]
  Activity: 15.4 days
[5]
  Activity: 16.3 days
[6]
  Activity: Active
[7]
  Activity: 1.5
[8]
  Activity: 1.3
[9]
  Activity: 1.4
[10]
  Activity: 1.8
[11]
  Activity: 2.1
[12]
  Activity: 2.8
[13]
  Activity: Non-toxic
[14]
  Activity: Non-toxic
[15]
  Activity: Non-toxic
[16]
  Activity: 12.9 days
[17]
  Activity: 11.8 days
[18]
  Activity: 10.4 days
[19]
  Activity: 12.3 days
[20]
  Activity: 12.6 days
[21]
  Activity: 12.6 days
[22]
  Activity: inactive
[23]
  Activity: Non-toxic
[24]
  Activity: Non-toxic
[25]
  IC50: 0.022 µg/mL (≈ 0.0676 µM)
[26]
  selectivity ratio: 4.2
[27]
  IC50: 0.016 µg/mL (≈ 0.0492 µM)
[28]
  selectivity ratio: 4.9
[29]
  IC50: 0.063 µg/mL (≈ 0.194 µM)
[30]
  selectivity ratio: 8
[31]
  inhibition (INH): 25%
[32]
  IC50: 0.16 µg/mL (≈ 0.492 µM)
[33]
  selectivity ratio: 3.1
[34]
  IC50: Not Active
[35]
  AD50: 2.7 days
[36]
  Activity: Not Active
[37]
  Activity: 15 days

Source: ChEMBL document CHEMBL1150051, “Antiviral (RNA) activity of selected Amaryllidaceae isoquinoline constituents and synthesis of related substances” (J Nat Prod, 1992)
